# Assay results published in PubChem BioAssay AID506 (SGCOxCompounds, 2006).
# Molecular target: Serine/threonine-protein kinase Nek2 (Homo sapiens) (UniProt P51955)
# Assay: NEK2 binders by thermal shift, biophysical, DSF, SYPRO orange, recombinant protein (AID 506)
# Conditions: at 10 µM, protein 2 µM, active compounds read high
# Serine/threonine-protein kinase Nek2 (Homo sapiens), sequence (P51955 whole entry, looked up): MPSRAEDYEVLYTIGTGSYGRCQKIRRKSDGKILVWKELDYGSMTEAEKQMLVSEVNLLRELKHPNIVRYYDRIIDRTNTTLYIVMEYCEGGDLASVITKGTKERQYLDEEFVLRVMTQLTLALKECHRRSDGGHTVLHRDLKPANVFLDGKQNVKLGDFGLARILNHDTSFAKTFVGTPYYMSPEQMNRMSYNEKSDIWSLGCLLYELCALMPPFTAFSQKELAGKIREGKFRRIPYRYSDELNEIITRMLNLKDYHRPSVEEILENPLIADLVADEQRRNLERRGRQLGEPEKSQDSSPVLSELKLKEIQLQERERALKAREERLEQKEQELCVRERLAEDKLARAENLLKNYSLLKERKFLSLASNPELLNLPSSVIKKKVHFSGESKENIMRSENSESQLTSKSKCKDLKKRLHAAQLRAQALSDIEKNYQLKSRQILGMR
row,Tm shift [°C],Structure (SMILES)
1,5.6,NS(=O)(=O)c1ccc(Nc2nc(OCC3CCCCC3)c3[nH]cnc3n2)cc1
2,3.3,Nc1cc2ncnc(Nc3cccc(Br)c3)c2cc1N
3,3.4,O=c1c(O)c(-c2ccc(O)c(O)c2)oc2cc(O)cc(O)c12
4,3.3,Nc1cccc(-c2cc3c(Oc4cccc(O)c4)ncnc3[nH]2)c1
5,3.2,O=Nc1c(-c2c(O)[nH]c3ccc(S(O)(O)O)cc23)[nH]c2ccccc12
6,3.3,OCC(O)CCO/N=C1/C(c2c(O)[nH]c3ccccc23)=Nc2ccccc21 (stereo unspecified)
7,3.3,Clc1cccc(Nc2ccn3ncc(-c4ccc5c(c4)OCO5)c3n2)c1
8,3.1,NC(=O)Nc1sc(-c2ccccc2)cc1C(N)=O
9,4.6,C=CCNC(=O)c1cccc2c1-c1ccccc1C2=O
10,6,Cn1cc(/C=C2\C(=O)Nc3ccc(S(N)(=O)=O)cc32)c2ccccc21
11,3.2,COc1cccc(-c2cnn3ccc(Nc4cccc(Cl)c4)nc23)c1
12,3.7,Cc1cc(Nc2nc(-c3ccccc3)nc3ccccc23)n[nH]1
13,3.1,Nc1nc(Nc2ccc(S(N)(=O)=O)cc2)nn1C(=S)Nc1c(F)cccc1F
14,3.7,O=C1NCc2c1c1c3ccccc3[nH]c1c1[nH]c3ccccc3c21
15,3.2,O=C1C(C2=C3C(=Nc4ccccc43)/C(=C\c3ccc(O)cc3)C2=O)=C2C(=Nc3ccccc32)/C1=C\c1ccc(O)cc1
16,5.4,CCN(CC)CCNC(=O)c1c(C)[nH]c(/C=C2\C(=O)Nc3ccc(Cl)cc32)c1C
